Results as given in patent US6562825B1, “Piperazine derivatives as modulators of chemokine receptor activity” (Astrazeneca UK Limited, priority 1999, dated 2003).
Structures can show the parent of a compound that is named as a salt.

| Compound | melting point [°C] |
| --- | --- |
| CN(C)CCN(C)C(=O)COc1cc(Cl)ccc1C(=O)NCCN1CCN(Cc2ccc(Cl)c(Cl)c2)CC1 | 220 to 222 |
| CC(c1ccc(Cl)cc1)N1CCN(CCNC(=O)c2ccc(Cl)cc2OCC(=O)N(C)C)CC1 (stereo not drawn) (as salt: hydrochloride) [Example 9, 4-Chloro-N-(2-{4-[1-(4-chlorophenyl)ethyl]-1-piperazinyl}ethyl)-2-[2-(dimethylamino)-2-oxoethoxy]benzamide hydrochloride] | 216 to 217 |
| CCN(CC)C(=O)COc1cc(Cl)ccc1C(=O)NCCN1CCN(Cc2ccc(Cl)c(Cl)c2)CC1 (as salt: hydrochloride) [Example 10, dihydrochloride] | 185 to 188 |
| CN(C)C(=O)COc1cc(Cl)ccc1C(=O)N(C)CCN1CCN(Cc2ccc(Cl)c(Cl)c2)CC1 (as salt: hydrochloride) [Example 13, 4-Chloro-N-{2-[4-(3,4-dichlorobenzyl)-1-piperazinyl]ethyl}-2-[2-dimethylamino)-2-oxoethoxy]-N-methylbenzamide trihydrochloride] | 252 to 253 |
| CN(C)C(=O)COc1cc(Cl)ccc1C(=O)NCCN1CCN(C(c2ccccc2)c2ccccc2)CC1 (as salt: hydrochloride) [Example 14, N-[2-(4-Benzhydryl-1-piperazinyl)ethyl]-4-chloro-2-[2-(dimethylamino)-2-oxoethoxy]benzamide trihydrochloride] | 228 to 229 |
| CC1CN(Cc2ccc(Cl)c(Cl)c2)C(C)CN1CCNC(=O)c1ccc(Cl)cc1OCC(=O)N(C)C (stereo not drawn) (as salt: hydrochloride) [Example 16, E-4-Chloro-N-{2-[4-(3,4-dichlorobenzyl)-2,5-dimethyl-1-piperazinyl]ethyl}-2-[2-(dimethylamino)-2-oxoethoxy]benzamide dihydrochloride] | 220 to 221 |
| CN(C)C(=O)COc1cc(Cl)ccc1C(=O)NCCN1CCN(CCc2ccccc2)CC1 [Example 1, 4-Chloro-2-[2-(dimethylamino)-2-oxoethoxy]-N-[2-(4-phenethyl-1-piperazinyl)ethyl]benzamide] | 159 to 160 |
| CC(CO)NC(=O)COc1cc(Cl)ccc1C(=O)NCCN1CCN(Cc2ccc(Cl)c(Cl)c2)CC1 (stereo not drawn) [Example 4, 4-Chloro-N-{2-[4-(3,4-dichlorobenzyl)-1-piperazinyl]ethyl}-2-{2-[(2-hydroxy-1-methylethyl)amino]-2-oxoethoxy}benzamide] | 115 to 116 |
| CC(C)(CO)NC(=O)COc1cc(Cl)ccc1C(=O)NCCN1CCN(Cc2ccc(Cl)c(Cl)c2)CC1 [Example 5, 4-Chloro-N-{2-[4-(3,4-dichlorobenzyl)-1-piperazinyl]ethyl}-2-{2[(2-hydroxy-1,1-dimethylethyl)amino]-2-oxoethoxy}benzamide] | 77 to 78 |
| O=C(O)CNC(=O)COc1cc(Cl)ccc1C(=O)NCCN1CCN(Cc2ccc(Cl)c(Cl)c2)CC1 [Example 12, 2-[(2-{5-Chloro-2-[({2-[4-(3,4-dichlorobenzyl)-1-piperazinyl]ethyl}amino)carbonyl]phenoxy}acetyl)amino]acetic acid] | 214 to 216 |

Now from value to compound:

| melting point [°C] | Compound |
| --- | --- |
| 162 to 163 | CN(C)C(=O)COc1cc(Cl)ccc1C(=O)NCCN1CCN(Cc2ccc(Cl)c(Cl)c2)CC1 (as salt: hydrochloride) [Example 3, 4-Chloro-N-{2-[4-(3,4-dichlorobenzyl)-1-piperazinyl]ethyl}-2-[2-(dimethylamino)-2-oxoethoxy]benzamide dihydrochloride] |
| 118 to 120 | O=C(O)COc1cc(Cl)ccc1C(=O)NCCN1CCN(Cc2ccc(Cl)c(Cl)c2)CC1 [Example 2, 2-{5-Chloro-2-[({2-[4-(3,4-dichlorobenzyl)-1-piperazinyl]ethyl}amino)carbonyl]phenoxy}acetic acid] |
| 137 to 138 | CNC(=O)COc1cc(Cl)ccc1C(=O)NCCN1CCN(Cc2ccc(Cl)c(Cl)c2)CC1 [Example 6, 4-Chloro-N-{2-[4-(3,4-dichlorobenzyl)-1-piperazinyl]ethyl}-2-[2-(methylamino)-2-oxoethoxy]benzamide] |
| 157 to 158 | O=C(NCCN1CCN(Cc2ccc(Cl)c(Cl)c2)CC1)c1ccc(Cl)cc1OCC(=O)N1CCCC1 [Example 7, 4-Chloro-N-{2-[4-(3,4-dichlorobenzyl)-1-piperazinyl]ethyl}-2-[2-oxo-2-(1-pyrrolidinyl)ethoxy]benzamide] |
| 120 to 122 | NC(=O)COc1cc(Cl)ccc1C(=O)NCCN1CCN(Cc2ccc(Cl)c(Cl)c2)CC1 [Example 8, 2-(2-Amino-2-oxoethoxy)-4-chloro-N-{2-[4-(3,4-dichlorobenzyl)-1-piperazinyl]ethyl}benzamide] |
